From the supplement of paper PMC10307832

Assays:
Test in all cases: relative viability (nuclei count vs DMSO), 5 days (fraction); higher = more cells survive
Obatoclax + Pictilisib = compound: COC1=CC(c2cc3ccccc3[nH]2)=N/C1=C\c1[nH]c(C)cc1C [Obatoclax] + CS(=O)(=O)N1CCN(Cc2cc3nc(-c4cccc5[nH]ncc45)nc(N4CCOCC4)c3s2)CC1 [Pictilisib] (partner 1 µM)
Method in brief: (§1)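 Cells from lung cancer lines were seeded into 1536-well plates and, one day later, dosed by pin tool. Treatments were either a single drug or a fixed dose of an anchor drug with five library-drug doses (not always all listed) in √10 steps. After 5 days, nuclei were stained in a one-step fixation (final 0.05% Triton X-100, 1% formaldehyde, 1 ug/ml Hoechst) and counted on 4× images, and relative viability is the treated-to-vehicle nuclei ratio, as the median of duplicate plates.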

[1] = compound: CC1=CC(=NN1)NC2=CC(=NC(=N2)/C=C/C3=CC=CC=C3)N4CCN(CC4)C + CS(=O)(=O)N1CCN(Cc2cc3nc(-c4cccc5[nH]ncc45)nc(N4CCOCC4)c3s2)CC1 [Pictilisib] (partner 1 µM)
Method in brief: as §1

Bortezomib + Dasatinib = compound: CC(C)C[C@H](NC(=O)[C@H](Cc1ccccc1)NC(=O)c1cnccn1)B(O)O [Bortezomib] + Cc1nc(Nc2ncc(C(=O)Nc3c(C)cccc3Cl)s2)cc(N2CCN(CCO)CC2)n1 [Dasatinib] (partner 0.075 µM)
Method in brief: as §1

[2] = compound: CC1=CC(=NN1)NC2=CC(=NC(=N2)/C=C/C3=CC=CC=C3)N4CCN(CC4)C + Nc1ncn([C@H]2C[C@H](O)[C@@H](CO)O2)c(=O)n1 [Decitabine] (partner 2 µM)
Method in brief: as §1

Work on NCI-H650 yielded a relative viability (Obatoclax + Pictilisib; first compound 0.01 µM) of 0.812, a relative viability (Obatoclax + Pictilisib; first compound 0.03162 µM) of 0.722 and a relative viability (Obatoclax + Pictilisib; first compound 0.1 µM) of 0.597. The relative viability (Obatoclax + Pictilisib; first compound 0.3162 µM) was 0.462, the relative viability (Obatoclax + Pictilisib; first compound 1 µM) was 0.333 and the relative viability ([1]; first compound 0.08 µM) was 0.763. It also gave a relative viability ([1]; first compound 0.253 µM) of 0.92, a relative viability ([1]; first compound 0.8 µM) of 0.93 and a relative viability ([1]; first compound 2.53 µM) of 0.719. The relative viability ([1]; first compound 8 µM) was 0.183, the relative viability (Bortezomib + Dasatinib; first compound 0.000632 µM) was 0.503 and the relative viability (Bortezomib + Dasatinib; first compound 0.002 µM) was 0.428. For the same cell line, the relative viability (Bortezomib + Dasatinib; first compound 0.006325 µM) was 0.268, the relative viability (Bortezomib + Dasatinib; first compound 0.02 µM) was 0.16 and the relative viability ([2]; first compound 0.08 µM) was 0.314. For the same cell line, the relative viability ([2]; first compound 0.253 µM) was 0.318, the relative viability ([2]; first compound 0.8 µM) was 0.287 and the relative viability ([2]; first compound 2.53 µM) was 0.246. It also gave a relative viability ([2]; first compound 8 µM) of 0.157.
